From patent US8383608B2, “Imidazolidine compounds as androgen receptor modulators” (Dart Therapeutics LLC, priority 2008, dated 2013) come the findings set out here.

pEC50: −log10 of the molar value. Where two headings read alike, the source gives them in different places.

For data set [1], the target named is T1, human androgen receptor (hAR) (Homo sapiens, UniProt P10275).
T1 construct: expressed in transfected cells
T1 sequence (P10275 1-920): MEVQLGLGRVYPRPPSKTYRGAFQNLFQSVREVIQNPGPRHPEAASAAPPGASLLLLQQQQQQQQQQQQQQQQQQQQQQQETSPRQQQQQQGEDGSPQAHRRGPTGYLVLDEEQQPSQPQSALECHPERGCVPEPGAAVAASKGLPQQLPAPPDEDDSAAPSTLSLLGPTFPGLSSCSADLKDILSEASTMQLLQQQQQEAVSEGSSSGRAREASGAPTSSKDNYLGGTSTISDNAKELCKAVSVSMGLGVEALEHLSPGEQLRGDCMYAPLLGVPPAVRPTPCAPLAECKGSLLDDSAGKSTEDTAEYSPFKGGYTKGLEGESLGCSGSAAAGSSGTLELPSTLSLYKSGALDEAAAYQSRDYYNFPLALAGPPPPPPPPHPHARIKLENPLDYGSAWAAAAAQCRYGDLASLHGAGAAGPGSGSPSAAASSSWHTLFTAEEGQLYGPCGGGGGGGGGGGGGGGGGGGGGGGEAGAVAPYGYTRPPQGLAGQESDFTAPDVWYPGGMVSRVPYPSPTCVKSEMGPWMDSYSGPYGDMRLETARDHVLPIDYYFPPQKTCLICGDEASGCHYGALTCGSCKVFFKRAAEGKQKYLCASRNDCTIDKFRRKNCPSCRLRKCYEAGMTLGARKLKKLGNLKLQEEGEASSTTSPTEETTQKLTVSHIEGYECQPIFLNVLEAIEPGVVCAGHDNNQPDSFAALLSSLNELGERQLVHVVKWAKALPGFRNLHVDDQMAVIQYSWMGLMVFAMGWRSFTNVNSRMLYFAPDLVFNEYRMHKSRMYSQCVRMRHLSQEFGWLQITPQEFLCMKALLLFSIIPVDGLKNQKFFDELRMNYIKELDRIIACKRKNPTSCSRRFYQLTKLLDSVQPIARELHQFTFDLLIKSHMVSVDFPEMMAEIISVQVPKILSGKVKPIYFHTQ
Description: Functional response (transactivation) test in HALP2 cells (HeLa stably expressing hAR and ARE-luciferase reporter). Particulars: HALP2 cells; for Emax: HeLa, read-out: % effect relative to DHT (100%); for pEC50: agonism: concentration inducing 50% of the maximum agonistic effect of the tested compound, 24 hours, read-out: EC50. The data set is classed as cell-based. The text has this: This test constitutes a method of identifying pure or partial agonists which mimic the effects of natural hormones, such as DHT (dihydrotestosterone) in the present case or, on the other hand, antagonists which inhibit them.
For this transactivation test, plasmids encoding a reporter gene and the human androgen receptor (hAR) are introduced together by transfection into the HeLa cell line. The reporter plasmid contains luciferase cDNA under the control of the AREs contained in the promoter sequences of the probasin gene (3xpbAREminicoll-luciferase/pGL3-puro). The expression of the reporter gene constitutes an indication of the transcriptional activity of hAR. It also encodes a protein allowing the cells expressing it to resist a treatment with puromycin. The plasmid encoding hAR contains the cDNA of hAR under the control of the Cytomegalovirus (CMV) promoter. It also encodes a protein allowing the cells expressing it to resist a treatment with neomycin. The treatment of cells with increasing amounts of potentially agonistic compounds will increase the expression of the reporter gene. To detect antagonists, on the other hand, increasing doses of test compounds are tested in the presence of […] of DHT. The expression of the reporter gene, which is constant for each dose of DHT, decreases when the concentration of the test compounds increases.
The functional response test is conducted on 96-well plates. The HALP2 cells are seeded (20,000 cells per well) in culture medium (DMEM with phenol red, 1% de Pen-Strep, 1% of non-essential amino acids, 10% of fetal bovine serum, 400 μg/mL Geneticin and 0.150 puromycin) on day 1. After 24 hours incubating at 37° C., 5% CO2, high humidity (day 2) the medium is removed and refreshed with test medium (DMEM without phenol red supplemented, 1% de Pen-Strep, 1% of non-essential amino acids and 5% of desteroidised foetal bovine serum). After another 24 hours incubating at 37° C., 5% CO2, high humidity (day 3), the medium is renewed once more before the phase of stimulation.
The cells are placed in contact with the compounds for 24 hours at 37° C., 5% CO2, high humidity. On day 4 the medium is then removed and the luciferase activity reading reagent is placed in contact with the cells in accordance with the manufacturer's instructions (SteadyLite, Perkin-Elmer). The luminescence produced is detected on an Envision reader (Perkin-Elmer). […]
The determination of the relative agonism/antagonism of a compound is obtained by comparing the maximal activation obtained with said compound and the activation obtained with DHT alone (100%).

Data set [2] can be described thus: Determination of absolute bioavailability (restricted PK profile, oral and intravenous). Particulars: absolute bioavailability (F), male Sprague Dawley rats, oral 10 mg/kg AUC(0-6 h) vs intravenous 3 mg/kg AUC(0-3 h). It counts as in vivo. How it is done:
To screen rapidly imidazolidines derivatives based on their absolute bioavailabity, restricted pharmacokinetic profile with only fours sampling time points after oral and intravenous route is investigated in Sprague Dawley rats as follows: each test compound is dosed orally (10 mg/kg) and intravenously (3 mg/kg) to groups of 3 male Sprague Dawley rats. Oral doses are administered as solution in EtOH/PEG400/H2O (1/79/20; v/v) by esophageal gavage (2 mg/mL; 5 mL/kg) and intravenous dose is given as solution in DMSO/PEG400/H2O (1/65/34; v/v) as a bolus in the tail vein (3 mg/mL; 1 mL/kg). Before oral dosing, animals are deprived of food (water ad libitum) for at least 16 hours before the start of the study and 6 hours after administration.
Blood is collected at the retro-orbital sinus into polypropylene tubes (Li-heparinate) at +4° C. at the following sampling-times: 0.083, 0.25, 1 and 3 h after intravenous injection and 0.25, 1, 3 and 6 hours after oral dosing. Three (3) animals are sampled per time-point; each animal being sampled four times. After centrifugation at 5000 rpm for 10 min at +4° C., plasma is collected into polypropylene tubes and kept frozen at −20° C. pending assays. Plasma samples are assayed by a LC-MS/MS method with a lower limit of quantification of 1 to 10 ng/mL depending on the compound (volume of plasma: 100 μL).
A LC-MS/MS method for quantification in heparinized plasma was developed for each test compound. Sample preparation consists of a precipitation of plasma proteins with methanol and filtration by centrifugation of supernatant on Captiva deep-well 96 0.2 μm filter plates. Water was added to methanol supernatant phase prior to analysis by liquid chromatography (Pursuit 5 C18 20×2.0 mm VARIAN, 2 μL loop, gradient Water/Methanol (90/10 to 0/100) over 1.7 min) with turboionspray tandem mass spectrometry (API4000) in negative mode using multiple reaction monitoring. The method includes 8 standard and 3 quality control levels with lower limit of quantification corresponding to first standard level.
Exposures are determined using a non compartmental model (WinNonLin 2.1) and the absolute bioavailability (F) is calculated as follows: [AUC(0-6 h) oral*3 mg/kg]/AUC(0-3 h) IV 10 mg/kg] and expressed in percentage.

For data set [3], the system named is castrated immature young rats. In words: Adapted model of Hershberger's test. It counts as in vivo, Sprague Dawley rats. The conditions noted are these: Rattus norvegicus, po, 96 h, ORX control = 0%, SHAM control = 100%, per os daily for 4 days, dose tested 10 mg/kg. How it is done:
The selective modulating activity of the androgen receptor is tested in a model of castrated immature young rats. This model, which is widely recognised for evaluating the anabolic effects of androgen compounds on the muscles and on the prostate, has been described by Hershberger et al. 1953 Proc. Soc. Expt. Biol. Med. 83:175.
The method is based on the measurement of the well-known effects of androgens on the growth of the muscles and the accessory male sex organs in animals, and also in men. The consequences of castration appear in the form of a rapid involution and atrophy of the prostate and the seminal vesicles and of the anus-lifting muscle (levator ani). This effect may be completely compensated by an exogeneous administration of androgen, in particular of testosterone. The model is thus used to determine the capacity of the tested molecules to maintain the weight of the accessory sex and muscle organs in immature castrated rats, and therefore their androgenic efficacy.
Immature young Sprague Dawley rats (4 to 5 weeks old) weighing approximately 140-160 g (Charles River, Les Oncins, FRANCE) are distributed randomly in various groups and are kept in an environment at 22±2° C. with an alternating day/night cycle of 12 hours and ad libitum access to food and drink.
On day 0 (seven days before commencement of the first treatment) the rats are weighed individually then anaesthetised with an intraperitoneal dose of Ketamine/xylazine (85/15 mg/kg, approximately 2 ml/kg). Each animal is then placed on a sterile field and the abdomen and the scrotum are disinfected with Betadine and 70% alcohol. In the case of the orchidectomised control animals (ORX), the testicles are removed via an incision in the middle of the scrotum. A sterile suture is then made to ligature the supra-testicular portion of the tissue prior to surgical section of each testicle. The groups of animals to be treated by the tested compounds are operated on in an identical manner. In the case of the intact control animals (SHAM), the testicles are similarly extracted and reintroduced delicately to their original location. The site of surgical intervention is then sutured using sterile suture thread, and the site is disinfected again by application of Betadine. Each animal is then kept under a sterile pad until it awoke, before being returned to its cage. The animals are kept in an environment at 22±2° C. with an alternating day/night cycle of 12 hours and ad libitum access to food and drink. The animals are treated with the molecules to be tested from post-surgery day 7 and until day 10 preceding sacrifice (day 11).
The rats are split into groups and treated daily from day 7 to day 10 under the conditions defined below: • 1. SHAM control group: Vehicle (PEG400/DMSO/water; 79/1/20) administered per os. • 2. ORX control group: Vehicle (PEG400/DMSO/water; 79/1/20) administered per os. • 3. Treated ORX group: The tested compounds are administered individually per os in suspension in the vehicle described above, in a dose of 10 mg/kg.
After treatment for 4 successive days, the animals are decapitated using a guillotine. The levator ani and the ventral prostate are removed and weighed individually. For comparing inter-experimental data, the weight of each organ is standardised and expressed in milligrammes per 100 g of the weight of the animal (W). For each organ, the average of the standardised weights of the ORX control group is fixed by definition at 0% and the average of the standardised weights of the SHAM control group is fixed by definition at 100%. The efficacy of each product is expressed as a percentage and calculated using the following formula: (Wtreated−WORX)/(WSHAM−WORX)×100
A subsequent ANOVA test is used for statistical analysis to identify the differences between groups.

The mark [4] stands for this setting: maximal activation by the compound compared with DHT alone (100%).
The mark [5] stands for this setting: male, Sprague-Dawley, rat, plasma, po, 10 mg/kg, read-out: Bioavailability.
The mark [6] stands for this setting: levator ani weight, read-out: Anabolic activity %.
Setting [7] is: ventral prostate weight, read-out: Androgenic activity % (Prostate).

As to `CC(O)C1(c2ccccc2)C(=O)N(c2ccc(C#N)c(C(F)(F)F)c2)C(=O)N1C` (single isomer, unassigned) [Example 5, 4-[2,5-Dioxo-4-(1-hydroxyethyl)-3-methyl-4-phenylimidazolidin-1-yl]-2-trifluoromethylbenzonitrile], the “% effect relative to DHT (100%)” value in data set [1] (setting [4]) is listed as “§ (0-5%)”. Besides, in data set [2], the bioavailability entry is reported as “### (>90%:)”.

With `CN1C(=O)N(c2ccc(C#N)c(C(F)(F)F)c2)C(=O)C1(CO)c1ccccc1` (stereo not drawn) [Example 1, 4-[2,5-Dioxo-4-(hydroxymethyl)-3-methyl-4-phenylimidazolidin-1-yl]-2-trifluoromethylbenzonitrile], the Emax in data set [1] (setting [4]) lay within 21 to 40%. The pEC50 in data set [1] was 8.00 to 11.00. For the same compound, in data set [2] (setting [5]), the bioavailability was 50 to 90%.

Consider `CCC(O)C1(c2ccccc2)C(=O)N(c2ccc(C#N)c(C(F)(F)F)c2)C(=O)N1C` (single isomer, unassigned) [Example 3, 4-[2,5-Dioxo-4-(1-hydroxypropyl)-3-methyl-4-phenylimidazolidin-1-yl]-2-trifluoromethylbenzonitrile], for which the bioavailability in data set [2] (setting [5]) lay in the range of 50 to 90%.

As for `CN1C(=O)N(c2ccc(C#N)c(C(F)(F)F)c2)C(=O)C1(CO)c1cccc(C(F)(F)F)c1` (stereo not drawn) [Example 15, 4-[2,5-Dioxo-4-hydroxymethyl-3-methyl-4-(3-trifluoromethylphenyl)imidazolidin-1-yl)-2-trifluoromethylbenzonitrile], the values for the response vs control in vivo at 10 mg/kg in data set [3] (setting [6]) and in data set [3] (setting [7]) were 25 to 50% and 0%, respectively. Further, the Emax in data set [1] (setting [4]) was 21 to 40%. Further, in data set [1], the negative-log EC50 (pEC50) is 6.30 to 7.00.

With `Cc1cccc(C2(CO)C(=O)N(c3ccc(C#N)c(C(F)(F)F)c3)C(=O)N2C)c1` (stereo not drawn) [Example 21, 4-[2,5-Dioxo-4-hydroxymethyl-3-methyl-4-(3-methylphenyl)imidazolidin-1-yl)-2-trifluoromethylbenzonitrile], the response vs control in vivo at 10 mg/kg in data set [3] (setting [6]) was 0.5 to 25%; in data set [3] (setting [7]), 0%. Moreover, the Emax in data set [1] (setting [4]) lay in the range of 6 to 20%. Moreover, the pEC50 in data set [1] was 6.00 to 6.30.

Regarding `CN1C(=O)N(c2ccc(C#N)c(C(F)(F)F)c2)C(=O)C1(CO)c1cccc(Cl)c1` (stereo not drawn) [Example 9], the response vs control in vivo at 10 mg/kg in data set [3] (setting [6]) is 50 to 75%; in data set [3] (setting [7]), 0.5 to 25%. For the same compound, the Emax in data set [1] (setting [4]) lay within 41 to 50%. Besides, in data set [1], the pEC50 was 8.00 to 11.00.
